Source: the supplement of paper PMC11451515

System: NOMO1
Test: cell viability relative to DMSO control; higher = less cytotoxic
Conditions: 48 h
Outline: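 Cells were incubated for 48 h at 37°C before CellTiter-Glo One luminescence was read. The cells were NOMO1 or SEM (500 cells/well) or P12-Ichikawa (1000 cells/well) leukemia cells, adapted for at least four passages in each medium and seeded in 1536-well plates (5 μl). Dosing used library compounds in DMSO applied by pin over 11 threefold points, 47 μM to 0.79 nM. Viability is the per-plate percentage of DMSO wells, with cell-free wells as background.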

[1] = HPLM + 10% dialyzed FBS, 0.000781 µM
[2] = HPLM + 10% dialyzed FBS, 0.00234 µM
[3] = HPLM + 10% dialyzed FBS, 0.00702 µM
[4] = HPLM + 10% dialyzed FBS, 0.0211 µM
[5] = HPLM + 10% dialyzed FBS, 0.0632 µM
[6] = HPLM + 10% dialyzed FBS, 0.19 µM
[7] = HPLM + 10% dialyzed FBS, 0.569 µM
[8] = HPLM + 10% dialyzed FBS, 1.71 µM
[9] = HPLM + 10% dialyzed FBS, 5.12 µM
[10] = HPLM + 10% dialyzed FBS, 15.4 µM
[11] = HPLM + 10% dialyzed FBS, 46.1 µM
[12] = RPMI 5 mM glucose + 10% FBS, 0.000781 µM
[13] = RPMI 5 mM glucose + 10% FBS, 0.00234 µM
[14] = RPMI 5 mM glucose + 10% FBS, 0.00702 µM
[15] = RPMI 5 mM glucose + 10% FBS, 0.0211 µM
[16] = RPMI 5 mM glucose + 10% FBS, 0.0632 µM
[17] = RPMI 5 mM glucose + 10% FBS, 0.19 µM
[18] = RPMI 5 mM glucose + 10% FBS, 0.569 µM
[19] = RPMI 5 mM glucose + 10% FBS, 1.71 µM
[20] = RPMI 5 mM glucose + 10% FBS, 5.12 µM
[21] = RPMI 5 mM glucose + 10% FBS, 15.4 µM
[22] = RPMI 5 mM glucose + 10% FBS, 46.1 µM
[23] = RPMI 5 mM glucose + 10% dialyzed FBS, 0.000781 µM
[24] = RPMI 5 mM glucose + 10% dialyzed FBS, 0.00234 µM
[25] = RPMI 5 mM glucose + 10% dialyzed FBS, 0.00702 µM
[26] = RPMI 5 mM glucose + 10% dialyzed FBS, 0.0211 µM
[27] = RPMI 5 mM glucose + 10% dialyzed FBS, 0.0632 µM
[28] = RPMI 5 mM glucose + 10% dialyzed FBS, 0.19 µM
[29] = RPMI 5 mM glucose + 10% dialyzed FBS, 0.569 µM
[30] = RPMI 5 mM glucose + 10% dialyzed FBS, 1.71 µM
[31] = RPMI 5 mM glucose + 10% dialyzed FBS, 5.12 µM
[32] = RPMI 5 mM glucose + 10% dialyzed FBS, 15.4 µM
[33] = RPMI 5 mM glucose + 10% dialyzed FBS, 46.1 µM

Structure (SMILES) | cell viability [1] [%] | cell viability [2] [%] | cell viability [3] [%] | cell viability [4] [%] | cell viability [5] [%] | cell viability [6] [%] | cell viability [7] [%] | cell viability [8] [%] | cell viability [9] [%] | cell viability [10] [%] | cell viability [11] [%] | cell viability [12] [%] | cell viability [13] [%] | cell viability [14] [%] | cell viability [15] [%] | cell viability [16] [%] | cell viability [17] [%] | cell viability [18] [%] | cell viability [19] [%] | cell viability [20] [%] | cell viability [21] [%] | cell viability [22] [%] | cell viability [23] [%] | cell viability [24] [%] | cell viability [25] [%] | cell viability [26] [%] | cell viability [27] [%] | cell viability [28] [%] | cell viability [29] [%] | cell viability [30] [%] | cell viability [31] [%] | cell viability [32] [%] | cell viability [33] [%]
C[C@@H]1C[C@H]2[C@@H]3CC\C4=C\C(=O)\C=C/[C@]4(C)[C@@]3(Cl)[C@@H](O)C[C@]2(C)[C@@]1(OC(=O)C5=CC=CO5)C(=O)CCl | 118 | 109 | 113 | 115 | 118 | 99.2 | 103 | 107 | 81.9 | 71.6 | 84.2 | 112 | 111 | 101 | 102 | 104 | 103 | 108 | 101 | 97.1 | 70.5 | 84.2 | 95.1 | 112 | 106 | 113 | 105 | 110 | 98 | 109 | 97.9 | 65.4 | 79.7
N\C1=N\C2=C(N=C[N]2COC(CO)CO)C(=O)N1 | 88.7 | 110 | 116 | 114 | 131 | 120 | 133 | 109 | 110 | 92.2 | 5.43 | 110 | 119 | 114 | 118 | 103 | 107 | 121 | 110 | 116 | 101 | 4.52 | 99.5 | 112 | 99.5 | 102 | 122 | 117 | 117 | 112 | 99.8 | 95.5 | 3.67
CCNc1cc(NC2CCC(O)CC2)nc(Nc2ccc3c(ccn3Cc3ccccc3)c2)n1 (centres undefined) | 113 | 121 | 126 | 124 | 147 | 118 | 127 | 139 | 121 | 116 | 120 |  |  |  |  |  |  |  |  |  |  |  | 115 | 123 | 124 | 142 | 141 | 129 | 148 | 121 | 150 | 145 | 106
Cc1cc(O)c2c(c1)C(=O)c1cc(O)cc(O)c1C2=O | 105 | 102 | 117 | 104 | 99.3 | 118 | 98.8 | 121 | 96.2 | 98.4 | 87.7 | 85.8 | 104 | 107 | 88.1 | 92.1 | 88 | 97.2 | 85.3 | 90.4 | 85.9 | 82.5 | 90.5 | 99 | 109 | 96.9 | 110 | 94.6 | 92.1 | 92 | 95.7 | 90.3 | 87.4
OC(COC1=C2C(=O)\C=C(/OC2=CC=C1)C([O-])=O)COC3=C4C(=O)\C=C(/OC4=CC=C3)C([O-])=O | 95.5 | 86.8 | 93.7 | 94.2 | 94.8 | 80.8 | 96.3 | 86.1 | 86.3 | 94.5 | 93 | 72.6 | 74.5 | 74.7 | 76.4 | 80.4 | 74.5 | 74.8 | 83.3 | 71 | 80.3 | 84.8 | 75.4 | 82 | 73.3 | 76.4 | 86 | 72.7 | 89.1 | 88.6 | 87.9 | 86 | 90.4
